Experimental data as given in publication doi:10.1101/871186v1 (bioRxiv, 2019).

Tests used:
[1] = Tissue distribution of intact MTfp by LCMS; assay type: in vivo, mouse (CD1)
[2] = system: neurons (NeuN), astrocytes (GFAP), microglia (TMEM), lysosomes (LAMP1), early endosomes (EEA1); assay type: in vivo; conditions: mouse brain sections after IV Cy5-MTfp, 3D confocal
[3] = system: in vitro bovine BBB model (primary bovine brain capillary endothelial cells supported by primary rat glial cells); experiment: In vitro BBB model transcytosis assay of MTf fragments and peptides; assay type: in vitro ADME

initial rate of transport, kidney ([1]; from 30-minute concentration): 9.9 nM/min | initial rate of transport, liver ([1]; from 30-minute concentration): 7.3 nM/min | initial rate of transport into the brain ([1]; slope of time vs concentration, 0 and 30-minute time points, protocol of Bickel): ~2 nM/min | MTFp found in the early endosomes ([2]; EEA1 marker): approximately 20% | MTFp found in the lysosomes ([2]; LAMP1 marker): 40% | Abluminal vs. Total ([3]; T = 120, abluminal compared to initial concentration): 1.90% | Abluminal vs. Luminal ([3]; T = 120, measure of transcytosis efficiency): 2.41%
Sequence: DSSHAFTLDELR [MTfp]
